Experimental data from US20110160146A1, “Conjungation of Small Molecules to Octaarginine Transporters for Overcoming Multi-Drug Resistance” (National Institute of Health (NIH), priority 2008, published 2011).
Non-standard residues stand in square brackets, D forms with d. Residues, ends and D or L forms follow the SMILES beside them. *: point of attachment. Paclitaxel(2'-OCO(CH2)3S) = CC(=O)O[C@H]1C(=O)[C@@]2(C)[C@H]([C@H](OC(=O)c3ccccc3)[C@]3(O)C[C@H](OC(=O)[C@H](OC(=O)CCCS*)[C@@H](NC(=O)c4ccccc4)c4ccccc4)C(C)=C1C3(C)C)[C@]1(OC(C)=O)CO[C@@H]1C[C@@H]2O; X2 = CC(=O)O[C@H]1C(=O)[C@@]2(C)[C@H]([C@H](OC(=O)c3ccccc3)[C@]3(O)C[C@H](OC(=O)[C@H](OC(=O)OCCS*)[C@@H](NC(=O)c4ccccc4)c4ccccc4)C(C)=C1C3(C)C)[C@]1(OC(C)=O)CO[C@@H]1C[C@@H]2O; X1 = CC(=O)O[C@H]1C(=O)[C@]2(C)[C@@H](OC(=O)CCCS*)C[C@H]3OC[C@@]3(OC(C)=O)[C@H]2[C@H](OC(=O)c2ccccc2)[C@]2(O)C[C@H](OC(=O)[C@H](O)[C@@H](NC(=O)c3ccccc3)c3ccccc3)C(C)=C1C2(C)C; X3 = O=C(OCCCS*)Oc1ccc(-c2cn3c(=O)c(Cc4ccccc4)nc-3c(Cc3ccccc3)[nH]2)cc1

Experiments:
[1] = Hydrolytic stability (HBS, pH 7.4, 37° C.); assay type: physicochemical
Protocol: A conjugate in which a drug to be delivered and a transporter are linked by a specifically cleavable or specifically releasable linker will have a half-life. The term “half-life” in this context refers to the amount of time required for one half of the amount of conjugate to become dissociated to release the free drug. The “accelerated” (37° C.) hydrolytic half-lives of the conjugates ranged from 19 to 97 hours, extending well beyond the incubation times (≦20 minutes) used for cell assays. Stabilities of the conjugates as solids at room temperature extend for months. […] The half-life of a conjugate can be “tuned” or modified, according to the invention, as described below.
The “accelerated” (37° C.) hydrolytic half-lives of the tetra- and octaarginine conjugates ranged from 19 to 97 hours, extending well beyond the incubation times (s 20 minutes) used for cell assays. Stability as a solid at room temperature extends for months. […] The activities of various conjugate-linker combinations were evaluated using a panel of human cancer cells, leading to the identification of ester-linked conjugates 2a and 3a as preferred candidates (Table 2).

MCF-7 = assay: cells; details: read-out: IC50 concentration; MCF-7; 20 min incubation, washed, 72 hr drug-free media
Protocol: (§1) After 72 hours, the cytotoxicity of the relevant compound was determined by an MTT based assay.
(§2) Cell Lines; SKOV-3 cells were obtained from ATCC; UCI-101 and UCI-107 cell lines were obtained from Drs. P. DiSaia and A. Manetta, University of California; MCF-7 and MCF-7-Pgp were obtained from Dr. D. Piwnica-Worms, Washington University; OVCA429, OVCA433 and the taxane resistant derivatives of these cells (OVCA429T, OVCA429TxT, OVCA433T and OVCA433TxT) were obtained from Dr. B. Sikic, Stanford University. All cells were grown in DMEM with 10% FBS.
(§3) Cell Cytotoxicity Assay. The cytotoxicity of relevant compounds was determined by IC50 assay. Cells were seeded overnight into 96-well plates, and then incubated with a serial dilution of the indicated compound for 20 min, before washing twice with fresh media, and incubation at 37° C. for 72 hr in drug-free media. The IC50 values were determined as the concentration of compound required to inhibit the viability of the cell layer by 50% relative to untreated, and cell-free control wells (100 and 0% viability respectively) determined from semi-logarithmic dose response curves. […] Bioluminescence was determined using an IVIS 50 system (Caliper Life Sciences, Alameda, Calif.). Each compound and dilution was tested in triplicate per experiment, with each experiment reproduced three times.

OVCA 429 = assay: cells; details: read-out: IC50 concentration; OVCA 429; 20 min incubation, washed, 72 hr drug-free media
Protocol: as §1, §2, §3

OVCA 433 = assay: cells; details: read-out: IC50 concentration; OVCA 433; 20 min incubation, washed, 72 hr drug-free media
Protocol: as §1, §2, §3

SKOV-3 = assay: cells; details: read-out: IC50 concentration; SKOV-3; 20 min incubation, washed, 72 hr drug-free media
Protocol: as §1, §2, §3

UCI-101 luc = assay: cells; details: read-out: IC50 concentration; UCI-101 luc; 20 min incubation, washed, 72 hr drug-free media; MTT assay or luciferase activity
Protocol: as §1, §2, §3

UCI-107 luc = assay: cells; details: read-out: IC50 concentration; UCI-107 luc; 20 min incubation, washed, 72 hr drug-free media; MTT assay or luciferase activity
Protocol: as §1, §2, §3

OVCA 429TxT = assay: cells; details: read-out: IC50 concentration; OVCA 429TxT (taxotere selected); 20 min incubation, washed, 72 hr drug-free media
Protocol: as §1
(§4) Within the panel of human cancer cells, there were three sets of related sensitive and resistant cell lines, the latter based wholly or in part on Pgp-mediated efflux. These resistant lines were either created through stable transfection of MCF-7 cells with Pgp (MCF-7-Pgp), or by selection through exposure of OVCA429 and OVCA433 cells to taxol (OVCA429T and OVCA433T)^19 or taxotere (OVCA429TxT and OVCA433TxT), creating a complex MDR phenotype including Pgp upregulation.
as §2, §3

OVCA 429T = assay: cells; details: read-out: IC50 concentration; OVCA 429T (taxol resistant); 20 min incubation, washed, 72 hr drug-free media
Protocol: as §1, §4, §2, §3

OVCA 433TxT = assay: cells; details: read-out: IC50 concentration; OVCA 433TxT (taxotere selected); 20 min incubation, washed, 72 hr drug-free media
Protocol: as §1, §4, §2, §3

OVCA 433T = assay: cells; details: read-out: IC50 concentration; OVCA 433T (taxol resistant); 20 min incubation, washed, 72 hr drug-free media
Protocol: as §1, §4, §2, §3

MCF-7-pgp = assay: Cell cytotoxicity assay (IC50), MCF-7-pgp; details: read-out: IC50 concentration; MCF-7-pgp (Pgp transfected); 20 min incubation, washed, 72 hr drug-free media
Protocol: as §1, §4, §2, §3

OVCA429 cells = assay: Cell cycle assay, OVCA429; assay type: cell-based, human; design: dose or concentration left out as unconfirmed; details: analysis after 24 hr, 7-AAD flow cytometry
Protocol: FIG. 1. Mechanisms of action of octaarginine taxol conjugates. (a) Tubulin polymerization assay.
The percentage of cells in G2/M was recorded. Data from 3 separate experiments were combined.
Statistical significance was determined as p<0.05.

[2] = Protocol: FIG. 2. Effect of octaarginine (r8) conjugation on biodistribution of drug. […] (a) Representative image of treated mice at 40 min post injection. (b) Total signal per mouse at times post injection (average of two experiments).
Biolumninescence signal was determined at regular time points immediately after injection using an IVIS 200 system (Caliper Life Sciences, Alameda, Calif.).

CC(=O)N[C@H](CSSCCCC(=O)O[C@@H](C(=O)O[C@H]1C[C@@]2(O)[C@@H](OC(=O)c3ccccc3)[C@@H]3[C@]4(OC(C)=O)CO[C@@H]4C[C@H](O)[C@@]3(C)C(=O)[C@H](OC(C)=O)C(=C1C)C2(C)C)[C@@H](NC(=O)c1ccccc1)c1ccccc1)C(=O)N[C@H](CCCNC(=N)N)C(=O)N[C@H](CCCNC(=N)N)C(=O)N[C@H](CCCNC(=N)N)C(=O)N[C@H](CCCNC(=N)N)C(=O)N[C@H](CCCNC(=N)N)C(=O)N[C@H](CCCNC(=N)N)C(=O)N[C@H](CCCNC(=N)N)C(=O)N[C@H](CCCNC(=N)N)C(N)=O [2a, Taxol C2′ ester octaarginine conjugate] (Ac-[dC](Paclitaxel(2'-OCO(CH2)3S))[dR][dR][dR][dR][dR][dR][dR][dR]-NH2)
half-life [1]: 23 h | IC50 (MCF-7): 0.04 µM | IC50 (OVCA 429): 0.042 µM | IC50 (OVCA 433): 0.021 µM | IC50 (SKOV-3): 0.011 µM | IC50 (UCI-101 luc): 0.058 µM | IC50 (UCI-107 luc): 0.092 µM | IC50 (OVCA 429TxT): 0.101 µM | IC50 (OVCA 429T): 0.42 µM | IC50 (OVCA 433TxT): 2.98 µM | IC50 (OVCA 433T): 0.131 µM | IC50 (MCF-7-pgp): 0.151 µM

CC(=O)N[C@H](CSSCCCC(=O)O[C@@H](C(=O)O[C@H]1C[C@@]2(O)[C@@H](OC(=O)c3ccccc3)[C@@H]3[C@]4(OC(C)=O)CO[C@@H]4C[C@H](O)[C@@]3(C)C(=O)[C@H](OC(C)=O)C(=C1C)C2(C)C)[C@@H](NC(=O)c1ccccc1)c1ccccc1)C(=O)N[C@H](CCCNC(=N)N)C(=O)N[C@H](CCCNC(=N)N)C(=O)N[C@H](CCCNC(=N)N)C(=O)N[C@H](CCCNC(=N)N)C(N)=O [2b, Taxol C2′ ester tetraarginine conjugate]
half-life [1]: 19 h | percentage of cells in the G2/M phase relative to taxol (OVCA429 cells): significantly greater percentage

CC(=O)N[C@H](CSSCCCC(=O)O[C@H]1C[C@H]2OC[C@@]2(OC(C)=O)[C@H]2[C@H](OC(=O)c3ccccc3)[C@]3(O)C[C@H](OC(=O)[C@H](O)[C@@H](NC(=O)c4ccccc4)c4ccccc4)C(C)=C([C@@H](OC(C)=O)C(=O)[C@]12C)C3(C)C)C(=O)N[C@H](CCCNC(=N)N)C(=O)N[C@H](CCCNC(=N)N)C(=O)N[C@H](CCCNC(=N)N)C(=O)N[C@H](CCCNC(=N)N)C(=O)N[C@H](CCCNC(=N)N)C(=O)N[C@H](CCCNC(=N)N)C(=O)N[C@H](CCCNC(=N)N)C(=O)N[C@H](CCCNC(=N)N)C(N)=O [3a, Taxol C7 ester octaarginine conjugate] (Ac-[dC](X1)[dR][dR][dR][dR][dR][dR][dR][dR]-NH2)
half-life [1]: 97 h | IC50 (MCF-7): 0.146 µM | IC50 (OVCA 429): 0.125 µM | IC50 (OVCA 433): 0.062 µM | IC50 (SKOV-3): 0.024 µM | IC50 (UCI-101 luc): 0.17 µM | IC50 (UCI-107 luc): 0.233 µM | IC50 (OVCA 429TxT): 0.093 µM | IC50 (OVCA 429T): 0.225 µM | IC50 (OVCA 433TxT): 1.28 µM | IC50 (OVCA 433T): 0.095 µM | IC50 (MCF-7-pgp): 0.083 µM

CC(=O)N[C@H](CSSCCCC(=O)O[C@H]1C[C@H]2OC[C@@]2(OC(C)=O)[C@H]2[C@H](OC(=O)c3ccccc3)[C@]3(O)C[C@H](OC(=O)[C@H](O)[C@@H](NC(=O)c4ccccc4)c4ccccc4)C(C)=C([C@@H](OC(C)=O)C(=O)[C@]12C)C3(C)C)C(=O)N[C@H](CCCNC(=N)N)C(=O)N[C@H](CCCNC(=N)N)C(=O)N[C@H](CCCNC(=N)N)C(=O)N[C@H](CCCNC(=N)N)C(N)=O [3b, Taxol C7 ester tetraarginine conjugate]
half-life [1]: 68 h

CC(=O)N[C@H](CSSCCOC(=O)O[C@@H](C(=O)O[C@H]1C[C@@]2(O)[C@@H](OC(=O)c3ccccc3)[C@@H]3[C@]4(OC(C)=O)CO[C@@H]4C[C@H](O)[C@@]3(C)C(=O)[C@H](OC(C)=O)C(=C1C)C2(C)C)[C@@H](NC(=O)c1ccccc1)c1ccccc1)C(=O)N[C@H](CCCNC(=N)N)C(=O)N[C@H](CCCNC(=N)N)C(=O)N[C@H](CCCNC(=N)N)C(=O)N[C@H](CCCNC(=N)N)C(=O)N[C@H](CCCNC(=N)N)C(=O)N[C@H](CCCNC(=N)N)C(=O)N[C@H](CCCNC(=N)N)C(=O)N[C@H](CCCNC(=N)N)C(N)=O [4a, Taxol C2′ octaarginine conjugate] (Ac-[dC](X2)[dR][dR][dR][dR][dR][dR][dR][dR]-NH2)
half-life [1]: 32 h

CC(=O)N[C@H](CSSCCOC(=O)O[C@@H](C(=O)O[C@H]1C[C@@]2(O)[C@@H](OC(=O)c3ccccc3)[C@@H]3[C@]4(OC(C)=O)CO[C@@H]4C[C@H](O)[C@@]3(C)C(=O)[C@H](OC(C)=O)C(=C1C)C2(C)C)[C@@H](NC(=O)c1ccccc1)c1ccccc1)C(=O)N[C@H](CCCNC(=N)N)C(=O)N[C@H](CCCNC(=N)N)C(=O)N[C@H](CCCNC(=N)N)C(=O)N[C@H](CCCNC(=N)N)C(N)=O [4b, Taxol C2′ tetraarginine conjugate]
half-life [1]: 26 h

CC(=O)N[C@H](CSSCCCOC(=O)Oc1ccc(-c2cn3c(=O)c(Cc4ccccc4)nc-3c(Cc3ccccc3)[nH]2)cc1)C(=O)N[C@H](CCCNC(=N)N)C(=O)N[C@H](CCCNC(=N)N)C(=O)N[C@H](CCCNC(=N)N)C(=O)N[C@H](CCCNC(=N)N)C(=O)N[C@H](CCCNC(=N)N)C(=O)N[C@H](CCCNC(=N)N)C(=O)N[C@H](CCCNC(=N)N)C(=O)N[C@H](CCCNC(=N)N)C(N)=O [compound 6, Coelenterazine octaarginine conjugate] (Ac-[dC](X3)[dR][dR][dR][dR][dR][dR][dR][dR]-NH2)
half-life [1]: 0.117 h

CC(=O)N[C@H](CSSCCCCOC(=O)Oc1ccc2nc(C3=N[C@@H](C(=O)O)CS3)sc2c1)C(=O)N[C@H](CCCNC(=N)N)C(=O)N[C@H](CCCNC(=N)N)C(=O)N[C@H](CCCNC(=N)N)C(=O)N[C@H](CCCNC(=N)N)C(=O)N[C@H](CCCNC(=N)N)C(=O)N[C@H](CCCNC(=N)N)C(=O)N[C@H](CCCNC(=N)N)C(=O)N[C@H](CCCNC(=N)N)C(N)=O [compound 7, Luciferin octaarginine conjugate]
half-life [1]: 30 h | calculated area under the curve (total light production) ([2]; intraperitoneal injection, luciferase transgenic mice): similar | biodistribution after intraperitoneal injection ([2]; transgenic mice ubiquitously expressing Firefly luciferase, equimolar to 5 mg/kg): did not distribute throughout the body, remaining instead near the site of administration
